From US20070167492A1, “Molluscicidal agents” (priority 2003, published 2007)

Tests used:
Assay type in all cases: in vivo
[1] = system: Winter wheat (Kampa race) seeds; assay: Seed germination test of treated winter wheat seeds (rolled in paper); conditions: 3x50 seeds, 6 days at 22° C.
Procedure: (§1) Winter wheat (Kampa race; thousand grain weight of 51 grams) was used in an experiment to test the efficacy of the compositions of the present inventions in relation to known molluscicidal compounds. The seeds were disinfected for soil and germ moulds with 2 ml of Beret Gold (comprising 25 g/l of the fungicide fludioxonil) per kg of seed.
(§2) Sepiret® was added to all dry disinfections, and is the coating that was added to all agents of which the formulation was not suitable for coating.
Table 2 provides an overview of the amounts of diluent water and Sepiret® used for treating the wheat seeds. Table 2 further provides the quality of the coating and the percentages of germinating seeds in a seed germination test. In this test, the percentage of germination of 3×50 seeds, rolled in paper, was determined after 6 days at 22° C. (continuously) and a 16 hours light regime.

[2] = system: Deroceras reticulatum (grey field slug); assay: Example 1: pot test, treated winter wheat seed with 5 adult slugs per pot, 14 days
Procedure: as §1, §2
The seeds were sown in earthenware pots with an internal diameter of 20 cm and a height of 18 cm, filled with 7 cm of potting soil (Trio BV, Weesp, The Netherlands) and with a top 2 cm of white quartz sand. A total of 40 seeds was placed in each pot, in a pattern of concentric circles on top of the quartz sand, the germ facing upwards. To each pot a total of 5 adult specimens of the test slug Deroceras reticulatum (grey field slug) were added. The pots were incubated at ±15° C. with a relative humidity of ±90% and light regime of ±12 hours light/12 hours dark, without artificial lighting. The pots were not irrigated overhead. In total, 4 parallel tests were performed for each test.
Following the addition of the slugs, the number of damaged seeds was counted after 2, 3, 7, 10 and 14 days. The number of plants present (germinated and not eaten or damaged by the slugs) was determined 3, 7, 10 and 14 days after the start of the test. […] The number of dead slugs was counted 2, 3, 7, 10 and 14 days after the start of the test (but not removed). Finally, on days 3, 7, 10 and 14 after the start of the test, the number fecal pellets was counted.
(§3) The data were statistically analysed by using F-tests (α=0.05) and pair-wise Student-tests.

[3] = system: Deroceras reticulatum (grey field slug); assay: Example 2: pot re-test, treated winter wheat seed with 5 adult slugs per pot, 7 days
From the text: Based on the results of the experiment described in Example 1, a selection was made from the various test numbers of that experiment for re-testing, partly to confirm the conclusions of that experiment and to test the unexpected outcome of some test compounds.
The selection of test numbers (Test No.) used in the present experiment relative to those of the experiment described in Example 1 is shown in Table 7.
The same seeds as described in Example 1 were sown in earthenware pots with an internal diameter of 20 cm and a height of 18 cm, filled with 7 cm of potting soil (Trio BV, Weesp, The Netherlands) and with a top 2 cm of white quartz sand. A total of 40 winter wheat seeds was placed in each pot, in a pattern of concentric circles on top of the quartz sand, the germ of the seed facing upwards. To each pot a total of 5 adult specimens of the test slug Deroceras reticulatum (grey field slug) were added. The pots were incubated at 18-19° C. with a relative humidity of ±95% and light regime of ±18 hours light/6 hours dark, without artificial lighting. The pots were not irrigated overhead. In total, 4 parallel tests were performed for each test.
The number of damaged seeds was, the number of plants present (germinated and not eaten or damaged by the slugs), the number of dead slugs and of the number of fecal pellets were determined after 2, 3 and 7 days following the addition of the slugs.
as §3

[4] = 2 ml formulated per kg seed, 2 days after sowing
[5] = 2 ml formulated per kg seed, 3 days after sowing
[6] = 2 ml formulated per kg seed, 7 days after sowing
[7] = 2 ml formulated per kg seed, 10 days after sowing
[8] = 2 ml formulated per kg seed, 14 days after sowing
[9] = 4 ml formulated per kg seed, 2 days after sowing
[10] = 4 ml formulated per kg seed, 3 days after sowing
[11] = 4 ml formulated per kg seed, 7 days after sowing
[12] = 4 ml formulated per kg seed, 10 days after sowing
[13] = 4 ml formulated per kg seed, 14 days after sowing
[14] = 8 ml formulated per kg seed, 2 days after sowing
[15] = 8 ml formulated per kg seed, 3 days after sowing
[16] = 8 ml formulated per kg seed, 7 days after sowing
[17] = 8 ml formulated per kg seed, 10 days after sowing
[18] = 8 ml formulated per kg seed, 14 days after sowing
[19] = Example 2, 2 ml formulated per kg seed, 2 days after sowing
[20] = Example 2, 2 ml formulated per kg seed, 3 days after sowing
[21] = Example 2, 2 ml formulated per kg seed, 7 days after sowing
[22] = Example 2, 4 ml formulated per kg seed, 2 days after sowing
[23] = Example 2, 4 ml formulated per kg seed, 3 days after sowing
[24] = Example 2, 4 ml formulated per kg seed, 7 days after sowing
[25] = Example 2, after 2, 3 and 7 days

CNC(=O)Oc1cc(C)c(SC)c(C)c1 [methiocarb, 4-methylthio-3,5-xylyl methylcarbamate]
Percentage germinated ([1]; 2 ml formulated per kg seed): 61% | Percentage germinated ([1]; 4 ml formulated per kg seed): 63% | Percentage germinated ([1]; 8 ml formulated per kg seed): 27% | number of utilizable plants after 14 days ([2]; 2 ml formulated per kg seed): 15.5 | percentage of damaged seeds after 14 days ([2]; 2 ml formulated per kg seed): 44% | Mean number of damaged seeds per pot [2, 4]: 2.0 | Mean number of dead slugs per pot [2, 4]: 0.3 | Mean number fecal pellets per pot [2, 5]: 18 | Mean number of damaged seeds per pot [2, 5]: 5.3 | Mean number of dead slugs per pot [2, 5]: 0.3 | Mean number of plants present per pot [2, 5]: 10.5 | Mean number fecal pellets per pot [2, 6]: 43 | Mean number of damaged seeds per pot [2, 6]: 19.3 | Mean number of dead slugs per pot [2, 6]: 0.3 | Mean number of plants present per pot [2, 6]: 16.5 | Mean number fecal pellets per pot [2, 7]: 47 | Mean number of damaged seeds per pot [2, 7]: 17.0 | Mean number of dead slugs per pot [2, 7]: 0.3 | Mean number of plants present per pot [2, 7]: 19.8 | Mean number fecal pellets per pot [2, 8]: 50 | Mean number of damaged seeds per pot [2, 8]: 17.8 | Mean number of dead slugs per pot [2, 8]: 0.5 | Mean number of plants present per pot [2, 8]: 21.3 | number of utilizable plants after 14 days ([2]; 4 ml formulated per kg seed): 19.8 | percentage of damaged seeds after 14 days ([2]; 4 ml formulated per kg seed): 13% | Mean number of damaged seeds per pot [2, 9]: 1.3 | Mean number of dead slugs per pot [2, 9]: 0 | Mean number fecal pellets per pot [2, 10]: 16 | Mean number of damaged seeds per pot [2, 10]: 3.3 | Mean number of dead slugs per pot [2, 10]: 0 | Mean number of plants present per pot [2, 10]: 7.8 | Mean number fecal pellets per pot [2, 11]: 34 | Mean number of damaged seeds per pot [2, 11]: 10.8 | Mean number of dead slugs per pot [2, 11]: 0.3 | Mean number of plants present per pot [2, 11]: 22.8 | Mean number fecal pellets per pot [2, 12]: 35 | Mean number of damaged seeds per pot [2, 12]: 4.8 | Mean number of dead slugs per pot [2, 12]: 0.3 | Mean number of plants present per pot [2, 12]: 30.3 | Mean number fecal pellets per pot [2, 13]: 36 | Mean number of damaged seeds per pot [2, 13]: 5.0 | Mean number of dead slugs per pot [2, 13]: 1.8 | Mean number of plants present per pot [2, 13]: 29.8 | number of utilizable plants after 14 days ([2]; 8 ml formulated per kg seed): 33.0 | percentage of damaged seeds after 14 days ([2]; 8 ml formulated per kg seed): 8% | Mean number of damaged seeds per pot [2, 14]: 1.8 | Mean number of dead slugs per pot [2, 14]: 0 | Mean number fecal pellets per pot [2, 15]: 6 | Mean number of damaged seeds per pot [2, 15]: 2.5 | Mean number of dead slugs per pot [2, 15]: 0.3 | Mean number of plants present per pot [2, 15]: 4.3 | Mean number fecal pellets per pot [2, 16]: 23 | Mean number of damaged seeds per pot [2, 16]: 4.5 | Mean number of dead slugs per pot [2, 16]: 0.5 | Mean number of plants present per pot [2, 16]: 32.0 | Mean number fecal pellets per pot [2, 17]: 27 | Mean number of damaged seeds per pot [2, 17]: 3.3 | Mean number of dead slugs per pot [2, 17]: 1.3 | Mean number of plants present per pot [2, 17]: 33.8 | Mean number fecal pellets per pot [2, 18]: 27 | Mean number of damaged seeds per pot [2, 18]: 3.3 | Mean number of dead slugs per pot [2, 18]: 1.5 | Mean number of plants present per pot [2, 18]: 34.8 | effect on the slug population ([2]; Example 1): little effect on the slug population | damaged seeds relative to the untreated pots ([2]; Example 1, 2, 4 and 8 ml per kg of seed, from day 3 after sowing): significantly less damaged seeds | plants present relative to the untreated pots ([2]; Example 1, 2, 4 or 8 ml per kg of seed, after 3 (only 2 ml), 7, 10 and 14 days): significantly more plants present | fecal pellets relative to the untreated seed ([2]; Example 1, at each dosage and at each observation): significantly less fecal pellets | protection / slug controlling effect (conclusion) ([2]; Example 1, winter wheat seed treatment, dosages tested): good protection to both seeds and plants | dead slugs observed during the course of the experiment ([3]; Example 2): More dead slugs | result of seed treatment against slugs (conclusion) ([3]; Example 2): fairly food protection of the seeds against slugs | percentage of damaged seeds after 7 days ([3]; Example 2, 2 ml formulated per kg seed): 14% | Mean number of damaged seeds per pot [3, 19]: 2.5 | Mean number of dead slugs per pot [3, 19]: 0.3 | Mean number of damaged seeds per pot [3, 20]: 4.8 | Mean number of dead slugs per pot [3, 20]: 0.5 | Mean number of damaged seeds per pot [3, 21]: 5.5 | Mean number of dead slugs per pot [3, 21]: 2.3 | percentage of damaged seeds after 7 days ([3]; Example 2, 4 ml formulated per kg seed): 9% | Mean number of damaged seeds per pot [3, 22]: 1.8 | Mean number of dead slugs per pot [3, 22]: 0 | Mean number of damaged seeds per pot [3, 23]: 2.0 | Mean number of dead slugs per pot [3, 23]: 1.8 | Mean number of damaged seeds per pot [3, 24]: 3.5 | Mean number of dead slugs per pot [3, 24]: 3.3 | number of fecal pellets per pot relative to the untreated control [3, 25]: significant reduction in the number of fecal pellets | plants present relative to the untreated seed [3, 25]: significantly more plants present | number of damaged seeds relative to the untreated seed ([3]; Example 2, two days after the start): significant reduction in the number of damaged seeds | Mean number of fecal pellets per pot ([3]; dosage 2 ml, 2 days): 1 | Mean number of plants present per pot ([3]; dosage 2 ml, 2 days): 9.0 | Mean number of fecal pellets per pot ([3]; dosage 2 ml, 3 days): 9 | Mean number of plants present per pot ([3]; dosage 2 ml, 3 days): 22.5 | Mean number of fecal pellets per pot ([3]; dosage 2 ml, 7 days): 20 | Mean number of plants present per pot ([3]; dosage 2 ml, 7 days): 34.0 | number of utilizable plants after 7 days ([3]; dosage 2 ml, 7 days): 26.8 | Mean number of fecal pellets per pot ([3]; dosage 4 ml, 2 days): 2 | Mean number of plants present per pot ([3]; dosage 4 ml, 2 days): 28.3 | Mean number of fecal pellets per pot ([3]; dosage 4 ml, 3 days): 7 | Mean number of plants present per pot ([3]; dosage 4 ml, 3 days): 33.3 | Mean number of fecal pellets per pot ([3]; dosage 4 ml, 7 days): 11 | Mean number of plants present per pot ([3]; dosage 4 ml, 7 days): 34.5 | number of utilizable plants after 7 days ([3]; dosage 4 ml, 7 days): 32.5
